According to article PMC7192455, “Exploring novel bacterial terpene synthases” (PLoS ONE, 2020):

How the values were obtained:
Assay in all cases: product identification by GC-QToF
Format in all cases: biochemical
[1] = molecular target: T1, ScGeoS, geosmin synthase (CAB41566.1) (Streptomyces coelicolor, UniProt Q9X839); conditions: 75 uM FPP, 5 mM MgCl2, 25 mM Tris-HCl pH 7.8, 28 C overnight; products geosmin, germacradienol, germacrene D; positive control
T1 construct: gene cyc2; bi-domain enzyme, recombinant, purified; pETM11 N-terminal His-tag

[2] = molecular target: T2, MiGerS (ADU09376.1), germacatriene synthase (Micromonospora aurantiaca (nom. illeg.), UniProt A0ABQ6UH67); conditions: 75 uM FPP, 5 mM MgCl2, 25 mM Tris-HCl pH 7.8, 28 C overnight; products germacrene A (seen as beta-elemene) and 1(10),4,11-germacratriene
T2 construct: gene F6X54_13130; codon-optimised, pETM11, N-terminal His-tag (TEV cleavable), E. coli, Ni-NTA purified

RrBerS (AHY45426.1) = molecular target: T3, RrBerS (AHY45426.1) (Rubrobacter radiotolerans, UniProt A0A023WZP4); conditions: 5 mM MgCl2, 25 mM Tris-HCl pH 7.8, 28 C overnight
T3 construct: gene RradSPS_0143; codon-optimised, pETM11, N-terminal His-tag (TEV cleavable), E. coli, Ni-NTA purified
T3 sequence (A0A023WZP4 1-348): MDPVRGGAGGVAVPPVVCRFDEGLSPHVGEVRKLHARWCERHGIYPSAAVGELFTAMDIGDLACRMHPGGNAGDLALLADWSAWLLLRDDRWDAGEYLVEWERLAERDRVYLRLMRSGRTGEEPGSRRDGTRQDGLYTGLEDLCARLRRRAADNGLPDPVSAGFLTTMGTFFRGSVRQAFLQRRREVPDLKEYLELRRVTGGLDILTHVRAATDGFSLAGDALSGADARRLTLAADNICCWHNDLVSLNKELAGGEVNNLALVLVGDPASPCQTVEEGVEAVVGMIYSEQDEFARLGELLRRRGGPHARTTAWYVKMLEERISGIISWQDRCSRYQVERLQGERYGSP

[3] = molecular target: T4, ScAroS (KYF56472.1), aromandendrene synthase (Sorangium cellulosum, UniProt Z9C2K8JLD0); conditions: 75 uM FPP, 5 mM MgCl2, 25 mM Tris-HCl pH 7.8, 28 C overnight; product aromadendrene
T4 construct: codon-optimised, pETM11, N-terminal His-tag (TEV cleavable), E. coli, Ni-NTA purified
T4 sequence (Z9C2K8JLD0 1-329): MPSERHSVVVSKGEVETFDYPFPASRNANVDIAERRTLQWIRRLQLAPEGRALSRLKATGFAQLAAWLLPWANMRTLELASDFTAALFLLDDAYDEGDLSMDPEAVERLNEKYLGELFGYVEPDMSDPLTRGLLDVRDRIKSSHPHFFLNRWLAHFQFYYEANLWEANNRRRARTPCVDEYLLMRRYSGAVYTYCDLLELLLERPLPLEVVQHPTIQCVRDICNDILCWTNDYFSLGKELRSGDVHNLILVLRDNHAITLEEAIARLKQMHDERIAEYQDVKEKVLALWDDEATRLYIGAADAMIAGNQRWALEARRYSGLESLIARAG

[4] = molecular target: T5, RrNerS (AHY47823.1), linalool/nerolidol synthase (Rubrobacter radiotolerans, UniProt A0A023X648); conditions: 5 mM MgCl2, 25 mM Tris-HCl pH 7.8, 28 C overnight
T5 construct: gene RradSPS_2540; codon-optimised, pETM11, N-terminal His-tag (TEV cleavable), E. coli, Ni-NTA purified
T5 sequence (A0A023X648 1-315): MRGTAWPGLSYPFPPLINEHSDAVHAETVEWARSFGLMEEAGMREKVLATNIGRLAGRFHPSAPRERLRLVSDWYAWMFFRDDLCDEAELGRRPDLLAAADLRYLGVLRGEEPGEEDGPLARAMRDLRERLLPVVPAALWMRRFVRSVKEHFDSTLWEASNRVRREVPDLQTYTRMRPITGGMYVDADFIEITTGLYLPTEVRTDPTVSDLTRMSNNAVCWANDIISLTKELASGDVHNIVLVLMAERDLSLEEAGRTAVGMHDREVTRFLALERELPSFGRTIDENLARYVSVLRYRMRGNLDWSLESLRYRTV

[5] = molecular target: T6, ScEpiS (CAN96536.1), 10-epi-cubebol synthase (Sorangium cellulosum, UniProt A9GK58); conditions: 5 mM MgCl2, 25 mM Tris-HCl pH 7.8, 28 C overnight
T6 construct: gene sce6369; codon-optimised, pETM11, N-terminal His-tag (TEV cleavable), E. coli, Ni-NTA purified
T6 sequence (A9GK58 1-315): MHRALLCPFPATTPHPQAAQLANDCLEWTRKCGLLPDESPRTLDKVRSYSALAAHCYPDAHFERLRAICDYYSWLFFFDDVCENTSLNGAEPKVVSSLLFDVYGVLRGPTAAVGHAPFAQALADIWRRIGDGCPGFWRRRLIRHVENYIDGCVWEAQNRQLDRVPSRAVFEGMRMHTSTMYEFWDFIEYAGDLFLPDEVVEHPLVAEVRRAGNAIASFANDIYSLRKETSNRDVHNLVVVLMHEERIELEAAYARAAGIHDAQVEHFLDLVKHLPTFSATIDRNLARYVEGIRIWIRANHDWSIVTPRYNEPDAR

KaGerS (AHH94051.1) = molecular target: T7, KaGerS (AHH94051.1) (Kutzneria viridogrisea, UniProt W5W0G4); conditions: 75 uM FPP, 5 mM MgCl2, 25 mM Tris-HCl pH 7.8, 28 C overnight; products germacradienol and germacrene D
T7 construct: gene KALB_676; codon-optimised, pETM11, N-terminal His-tag (TEV cleavable), E. coli, Ni-NTA purified
From the text: product identification by GC-QToF on KaGerS (AHH94051.1) | we tested its functionality with FPP in in vitro conditions. This yielded germacradienol and germacrene D

T1 sequence (Q9X839 whole entry): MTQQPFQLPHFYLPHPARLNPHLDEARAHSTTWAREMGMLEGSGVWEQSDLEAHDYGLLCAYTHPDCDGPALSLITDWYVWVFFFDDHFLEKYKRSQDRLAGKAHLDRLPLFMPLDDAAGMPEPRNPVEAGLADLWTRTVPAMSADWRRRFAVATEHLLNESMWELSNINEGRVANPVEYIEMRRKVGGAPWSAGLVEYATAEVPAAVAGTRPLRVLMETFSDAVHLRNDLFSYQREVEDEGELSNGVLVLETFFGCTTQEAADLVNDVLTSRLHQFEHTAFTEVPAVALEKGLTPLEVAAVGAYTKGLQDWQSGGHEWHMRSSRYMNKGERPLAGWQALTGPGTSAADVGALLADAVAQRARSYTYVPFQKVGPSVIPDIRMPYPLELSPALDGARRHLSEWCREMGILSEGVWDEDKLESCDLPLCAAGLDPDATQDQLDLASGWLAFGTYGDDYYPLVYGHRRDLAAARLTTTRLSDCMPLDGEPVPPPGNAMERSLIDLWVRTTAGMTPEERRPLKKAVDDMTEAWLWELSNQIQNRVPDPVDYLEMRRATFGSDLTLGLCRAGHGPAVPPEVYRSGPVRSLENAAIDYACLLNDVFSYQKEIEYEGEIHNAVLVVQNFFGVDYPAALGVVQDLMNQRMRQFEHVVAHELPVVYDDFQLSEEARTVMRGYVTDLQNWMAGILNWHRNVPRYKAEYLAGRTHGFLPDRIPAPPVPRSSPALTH
T7 sequence (W5W0G4 1-363): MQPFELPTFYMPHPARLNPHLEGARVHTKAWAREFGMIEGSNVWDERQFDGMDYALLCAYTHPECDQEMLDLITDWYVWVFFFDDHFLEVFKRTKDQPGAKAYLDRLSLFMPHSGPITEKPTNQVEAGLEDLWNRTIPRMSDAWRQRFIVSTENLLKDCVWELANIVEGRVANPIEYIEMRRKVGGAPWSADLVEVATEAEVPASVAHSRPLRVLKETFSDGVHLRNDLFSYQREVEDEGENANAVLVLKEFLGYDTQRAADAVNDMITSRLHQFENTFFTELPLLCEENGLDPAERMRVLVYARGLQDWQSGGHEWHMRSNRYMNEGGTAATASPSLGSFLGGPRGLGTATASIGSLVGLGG
T2 sequence (A0ABQ6UH67 entry or part of it): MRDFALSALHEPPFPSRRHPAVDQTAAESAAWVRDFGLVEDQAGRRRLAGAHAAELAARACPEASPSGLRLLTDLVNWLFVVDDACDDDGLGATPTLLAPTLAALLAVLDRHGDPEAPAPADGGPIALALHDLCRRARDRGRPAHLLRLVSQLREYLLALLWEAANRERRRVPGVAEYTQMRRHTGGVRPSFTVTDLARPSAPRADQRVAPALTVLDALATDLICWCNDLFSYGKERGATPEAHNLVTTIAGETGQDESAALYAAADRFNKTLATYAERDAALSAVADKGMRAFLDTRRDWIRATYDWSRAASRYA

Structure (SMILES) | product identification by GC-QToF [1] | product identification by GC-QToF [2] | product identification by GC-QToF (RrBerS (AHY45426.1); 75 uM FPP, product alpha-bergamotene) | product identification by GC-QToF [3] | product identification by GC-QToF ([4]; 75 uM FPP, product trans-nerolidol) | product identification by GC-QToF ([5]; 75 uM FPP, products 10-epi-cubebol and others) | product identification by GC-QToF (KaGerS (AHH94051.1)) | product identification by GC-QToF (RrBerS (AHY45426.1); 100 uM GPP, product linalool) | product identification by GC-QToF ([4]; 100 uM GPP, products R- and S-linalool) | product identification by GC-QToF ([5]; 100 uM GPP, products cis/trans-beta-ocimene and linalool)
CC(C)=CCC/C(C)=C/CC/C(C)=C/COP(=O)(O)OP(=O)(O)O [FPP] | purified geosmin synthase yielded the sesquiterpenoids geosmin, germacradienol and germacrene D | incubated with FPP yielded β-elemene, and 8-isopropenyl-1,5-dimethyl-1,5-cyclodecadiene | also showed activity with both FPP and GPP, yielding α-bergamotene | converted FPP into only aromadendrene in in vitro analysis | with FPP yielded a single product that was identified as trans-nerolidol by GC–QToF analysis | When ScEpiS was incubated with FPP the products obtained were 10-epi-α-cubinene | we tested its functionality with FPP in in vitro conditions. This yielded germacradienol and germacrene D | – | – | –
CC(C)=CCC/C(C)=C/COP(=O)(O)OP(=O)(O)O [GPP] | – | – | – | – | – | – | – | also showed activity with both FPP and GPP, yielding α-bergamotene | Incubation with GPP yielded both R- and S- linalool isomers | with GPP yielded the monoterpene products cis- and trans-β-ocimene
